The source made the active and inactive calls.
How the values were obtained:
[1] = target: T1, Rac GTPase-activating protein 1 (Homo sapiens, UniProt Q9H0H5); test: blockers of MgcRacGAP-driven Rac1 GTP hydrolysis – biochemical, ADP Hunter fluorescence, primary and confirmatory, confirmation (AID 624330); format: functional
T1 sequence (Q9H0H5 whole entry): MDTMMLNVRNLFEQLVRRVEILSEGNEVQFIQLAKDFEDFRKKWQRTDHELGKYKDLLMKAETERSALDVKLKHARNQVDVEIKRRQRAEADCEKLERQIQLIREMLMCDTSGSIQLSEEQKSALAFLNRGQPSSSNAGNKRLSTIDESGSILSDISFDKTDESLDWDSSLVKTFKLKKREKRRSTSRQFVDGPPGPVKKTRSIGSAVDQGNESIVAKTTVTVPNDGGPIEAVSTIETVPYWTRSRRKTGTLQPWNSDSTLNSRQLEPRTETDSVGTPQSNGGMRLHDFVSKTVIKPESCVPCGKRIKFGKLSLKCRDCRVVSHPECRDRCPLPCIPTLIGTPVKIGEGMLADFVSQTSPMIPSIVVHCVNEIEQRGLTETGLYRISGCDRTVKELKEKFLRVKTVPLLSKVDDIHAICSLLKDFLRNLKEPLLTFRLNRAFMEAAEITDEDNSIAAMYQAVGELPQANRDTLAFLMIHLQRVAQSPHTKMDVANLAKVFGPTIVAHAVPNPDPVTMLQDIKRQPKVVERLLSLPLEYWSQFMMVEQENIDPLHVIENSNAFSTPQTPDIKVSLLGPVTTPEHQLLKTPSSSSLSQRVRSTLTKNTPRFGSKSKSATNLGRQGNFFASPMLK

[2] = target: T2, Neuropeptide Y receptor type 1 (Homo sapiens, UniProt P25929); test: IC50 of human NPY-Y1 blockers – cell-based, dose response (AID 1277); format: functional
T2 sequence (P25929 whole entry): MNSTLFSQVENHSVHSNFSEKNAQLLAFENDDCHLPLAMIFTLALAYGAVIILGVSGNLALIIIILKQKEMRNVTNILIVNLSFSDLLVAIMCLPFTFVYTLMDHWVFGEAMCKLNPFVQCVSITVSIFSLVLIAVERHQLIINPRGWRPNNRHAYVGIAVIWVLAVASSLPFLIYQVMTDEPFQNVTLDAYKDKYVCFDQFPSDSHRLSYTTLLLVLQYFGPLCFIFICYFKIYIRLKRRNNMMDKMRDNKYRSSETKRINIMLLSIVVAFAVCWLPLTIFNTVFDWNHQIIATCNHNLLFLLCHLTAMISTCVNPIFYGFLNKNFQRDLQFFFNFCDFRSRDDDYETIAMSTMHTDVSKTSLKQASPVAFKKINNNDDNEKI

[3] = target: T3, Neuropeptide Y receptor type 2 (Homo sapiens, UniProt P49146); test: IC50 for human NPY-Y2 blockade – cell-based, counter-screen for NPY-Y1 antagonist project, dose response (AID 1278); format: functional
T3 sequence (P49146 whole entry): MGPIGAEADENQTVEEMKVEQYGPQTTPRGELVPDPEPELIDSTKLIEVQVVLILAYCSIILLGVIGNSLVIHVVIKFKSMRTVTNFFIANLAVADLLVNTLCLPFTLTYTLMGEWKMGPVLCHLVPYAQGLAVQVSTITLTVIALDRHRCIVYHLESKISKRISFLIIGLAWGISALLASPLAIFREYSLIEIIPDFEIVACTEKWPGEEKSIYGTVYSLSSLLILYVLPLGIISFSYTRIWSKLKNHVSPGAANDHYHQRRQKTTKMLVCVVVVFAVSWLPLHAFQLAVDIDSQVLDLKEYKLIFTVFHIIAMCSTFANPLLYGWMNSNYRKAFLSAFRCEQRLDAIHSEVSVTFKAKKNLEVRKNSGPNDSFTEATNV

HeLa = test: Cytotoxicity counterscreen assay for transcriptional activators of heat shock protein 70 (Hsp70). [Related pubchem assays: 1203, 1252 ]; format: functional; conditions: Homo sapiens;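 further: cells exposed to compound for 16 hours before readout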
Paired box protein Pax-8 = Paired box protein Pax-8 (Homo sapiens, UniProt Q06710); test: PAX8 transcriptional activity inhibition in RMG-I – RMG-I cells, luciferase, cherry-pick, dose response (AID 687027); format: functional, cell-based;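 further: luciferase reporter driven by Pax8 target thyroperoxidase promoter measured by SteadyGlo luminescence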
Chain of Paired box protein Pax-8 (Q06710 whole entry): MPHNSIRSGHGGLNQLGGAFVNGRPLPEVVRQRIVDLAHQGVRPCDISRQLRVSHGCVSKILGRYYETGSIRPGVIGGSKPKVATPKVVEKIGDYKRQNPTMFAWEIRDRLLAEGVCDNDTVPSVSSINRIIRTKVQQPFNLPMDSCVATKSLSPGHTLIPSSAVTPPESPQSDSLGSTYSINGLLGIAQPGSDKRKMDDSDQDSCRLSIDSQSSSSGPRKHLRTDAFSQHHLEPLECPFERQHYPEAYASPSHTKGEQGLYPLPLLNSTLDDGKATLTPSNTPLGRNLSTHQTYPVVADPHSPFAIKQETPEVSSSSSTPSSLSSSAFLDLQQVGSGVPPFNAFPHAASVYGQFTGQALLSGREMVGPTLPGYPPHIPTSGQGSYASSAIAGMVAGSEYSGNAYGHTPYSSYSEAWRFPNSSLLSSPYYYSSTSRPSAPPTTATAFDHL

[4] = CMV-driven luciferase expression suppression in HEK293 – cell-based, luminescence, dry powder, counter-screen for Pax8 inhibitor project, dose response (AID 743020); format: functional
[5] = target: T4, E3 ubiquitin-protein ligase XIAP (Homo sapiens, UniProt P98170); test: Counter Screen using XIAP-Bir3 for Chemical Antagonists of Bir1/2 domains of IAP-family anti-apoptotic proteins. [Related pubchem assays (depositor defined):AID1018, AID1449, AID1514, AID1638, AID1749, AID1750, AID488957, AID488963]
T4 sequence (P98170 whole entry): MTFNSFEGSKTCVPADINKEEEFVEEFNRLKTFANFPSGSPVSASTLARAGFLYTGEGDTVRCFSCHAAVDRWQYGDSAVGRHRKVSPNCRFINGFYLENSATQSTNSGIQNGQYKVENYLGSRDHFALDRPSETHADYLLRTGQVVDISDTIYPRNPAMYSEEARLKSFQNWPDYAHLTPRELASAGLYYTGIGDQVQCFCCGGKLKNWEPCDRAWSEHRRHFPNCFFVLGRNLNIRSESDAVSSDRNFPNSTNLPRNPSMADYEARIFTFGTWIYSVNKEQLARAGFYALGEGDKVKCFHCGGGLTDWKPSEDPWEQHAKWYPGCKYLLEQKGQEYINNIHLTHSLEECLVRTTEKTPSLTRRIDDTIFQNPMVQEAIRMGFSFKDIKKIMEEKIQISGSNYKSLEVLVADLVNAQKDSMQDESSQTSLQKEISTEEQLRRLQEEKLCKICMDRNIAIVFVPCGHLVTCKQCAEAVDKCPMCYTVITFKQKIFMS

[6] = target: T4, E3 ubiquitin-protein ligase XIAP; test: small molecules displacing peptide from XIAP – biochemical, IAP family, fluorescence polarization (AID 1018); format: functional
[7] = A High Throughput Confirmatory Assay used to Identify Novel Compounds that Inhibit Mycobacterium Tuberculosis in the absence of Glycerol.; format: functional
[8] = target: T3, Neuropeptide Y receptor type 2; test: Fluorescence-based cell-based high-throughput dose response assay for agonists of NPY-Y2. [Related pubchem assays: 1703 (Screening assay (CNGC inhibitors).), 1359 (Screening assay (NPY-Y2 potentiators or agonists).), 1304 (Screening assay (NPY-Y1 potentiators or agonists).), 1710 (Screening assay (NPY-Y2 agonists).), 1791 (Summary AID.)]; format: functional
[9] = target: T2, Neuropeptide Y receptor type 1; test: Fluorescence-based counterscreen for agonists of NPY-Y2: cell-based high-throughput dose response assay for agonists of NPY-Y1.; format: functional
HEK293 = test: Fluorescence-based counterscreen for potentiators or agonists of NPY-Y2: cell-based high-throughput dose response assay to identify inhibitors of cyclic nucleotide gated ion channel (CNGC) activity. In this assay, the parental HEK293 cell line transfected with a cyclic-nucleotide gated ion channel (CNGC)-based cAMP sensor is used to measure inhibition of isoproterenol-induced CNGC activity by test compound.; format: functional; conditions: Homo sapiens;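 further: stimulus is 1 µM isoproterenol at EC100 plus PDE inhibitor Ro 20-1724 at 25 µM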
Mucolipin-3 = Mucolipin-3 (Homo sapiens, UniProt Q8TDD5); test: Dose response cell-based high-throughput screening assay for agonists of the transient receptor potential channel ML3 (TRPML3). [Related pubchem assays: 1526, 1424, 1448 ]; format: functional
Chain of Mucolipin-3 (Q8TDD5 whole entry): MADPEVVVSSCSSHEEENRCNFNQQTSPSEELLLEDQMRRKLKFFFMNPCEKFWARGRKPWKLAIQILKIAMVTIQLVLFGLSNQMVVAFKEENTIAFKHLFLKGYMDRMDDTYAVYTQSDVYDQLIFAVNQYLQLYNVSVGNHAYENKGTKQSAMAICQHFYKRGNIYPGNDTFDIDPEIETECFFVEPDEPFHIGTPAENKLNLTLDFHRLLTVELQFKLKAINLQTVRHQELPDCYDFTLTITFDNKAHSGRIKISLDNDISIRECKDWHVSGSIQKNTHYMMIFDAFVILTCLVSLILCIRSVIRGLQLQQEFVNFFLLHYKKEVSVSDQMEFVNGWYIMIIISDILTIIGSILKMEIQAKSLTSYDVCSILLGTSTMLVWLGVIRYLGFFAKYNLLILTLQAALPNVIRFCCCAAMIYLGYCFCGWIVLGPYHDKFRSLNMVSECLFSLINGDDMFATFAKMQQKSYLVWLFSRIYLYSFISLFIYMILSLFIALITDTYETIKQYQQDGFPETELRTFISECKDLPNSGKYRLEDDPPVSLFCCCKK

Ion channel NompC = Ion channel NompC (Danio rerio, UniProt Q7T1G6); test: Fluorescence counterscreen assay for TRPML3 agonists: dose response cell-based high-throughput screening assay to identify agonists of the transient receptor potential channel N1 (TRPN1). [Related pubchem assays: 1526, 1424, 1448 ]; format: functional
Chain of Ion channel NompC (Q7T1G6 whole entry): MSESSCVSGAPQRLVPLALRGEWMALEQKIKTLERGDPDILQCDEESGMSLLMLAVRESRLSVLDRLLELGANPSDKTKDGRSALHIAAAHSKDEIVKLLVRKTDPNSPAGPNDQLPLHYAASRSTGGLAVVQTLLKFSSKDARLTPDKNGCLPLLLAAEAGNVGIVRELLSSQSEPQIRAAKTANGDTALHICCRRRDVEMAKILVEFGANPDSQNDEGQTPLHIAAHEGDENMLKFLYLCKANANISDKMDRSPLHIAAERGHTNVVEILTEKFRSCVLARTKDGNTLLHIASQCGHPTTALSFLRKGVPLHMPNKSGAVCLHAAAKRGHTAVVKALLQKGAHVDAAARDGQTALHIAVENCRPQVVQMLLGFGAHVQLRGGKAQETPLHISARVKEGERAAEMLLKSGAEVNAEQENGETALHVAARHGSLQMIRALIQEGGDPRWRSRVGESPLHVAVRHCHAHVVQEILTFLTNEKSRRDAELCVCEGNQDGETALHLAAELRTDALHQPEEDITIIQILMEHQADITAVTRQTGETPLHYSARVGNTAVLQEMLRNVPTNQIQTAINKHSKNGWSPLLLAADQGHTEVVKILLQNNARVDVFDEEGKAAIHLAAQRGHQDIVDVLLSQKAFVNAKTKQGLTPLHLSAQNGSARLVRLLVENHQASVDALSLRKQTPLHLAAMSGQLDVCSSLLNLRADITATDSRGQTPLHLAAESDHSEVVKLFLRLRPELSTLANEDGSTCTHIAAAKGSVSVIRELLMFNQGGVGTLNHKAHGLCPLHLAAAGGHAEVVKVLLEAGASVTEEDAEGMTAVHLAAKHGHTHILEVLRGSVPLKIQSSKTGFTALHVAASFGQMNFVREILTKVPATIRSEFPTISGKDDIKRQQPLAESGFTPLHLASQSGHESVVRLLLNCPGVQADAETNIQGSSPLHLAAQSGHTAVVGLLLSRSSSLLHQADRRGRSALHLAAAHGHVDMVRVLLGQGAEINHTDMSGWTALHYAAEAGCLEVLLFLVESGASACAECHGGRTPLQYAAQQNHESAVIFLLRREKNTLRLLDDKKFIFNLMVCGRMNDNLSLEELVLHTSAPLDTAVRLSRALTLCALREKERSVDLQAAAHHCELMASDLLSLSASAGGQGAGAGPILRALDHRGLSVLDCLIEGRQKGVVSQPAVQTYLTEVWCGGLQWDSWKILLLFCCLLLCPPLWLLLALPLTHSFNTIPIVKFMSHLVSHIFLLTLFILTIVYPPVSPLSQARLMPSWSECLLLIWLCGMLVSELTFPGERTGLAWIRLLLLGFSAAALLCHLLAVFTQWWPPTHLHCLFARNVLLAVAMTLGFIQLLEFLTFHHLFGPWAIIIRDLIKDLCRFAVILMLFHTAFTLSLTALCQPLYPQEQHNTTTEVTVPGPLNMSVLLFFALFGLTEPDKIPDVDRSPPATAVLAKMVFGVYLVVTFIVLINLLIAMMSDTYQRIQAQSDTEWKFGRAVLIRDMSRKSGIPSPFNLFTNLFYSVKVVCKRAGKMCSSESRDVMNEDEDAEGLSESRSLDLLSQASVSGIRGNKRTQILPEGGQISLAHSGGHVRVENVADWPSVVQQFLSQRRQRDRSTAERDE

Q: For `COc1ccc(Oc2c(C)n[nH]c2-c2ccc(O)cc2O)cc1`, which IC50 [1] is on record?
A: Its IC50 is 47.4 µM (active).

Q: What about the IC50 [2] of the same molecule?
A: The IC50 was > 35 µM (not active).

Q: What about the IC50 [3] of the same molecule?
A: The IC50 was > 35 µM (not active).

Q: What does the source list for `CCCC(=O)N1CCN(c2ccc(NC(=O)c3ccc([N+](=O)[O-])o3)cc2)CC1`?
A: CC50 (HeLa): 6.29 µM (active); AC50 (Paired box protein Pax-8): 5.17 µM (active); AC50 [4]: 19.9 µM (active)

Q: With `COc1ccc(C(=O)C2=C(O)C(=O)N(CC3CCCO3)C2c2cccc(OC)c2)cc1` (centres undefined) as the molecule, how does the IC50 [5] read?
A: Its IC50 is > 100 µM (inactive).

Q: And the IC50 [6]?
A: The IC50 was > 100 µM (not active).

Q: Which IC50 [7] does the source give for `O=C(CCN1C(=O)/C(=C/c2ccccc2)SC1=S)Nc1ccccn1` here?
A: Its IC50 is > 100 µM (active).

Q: For `O=C(/C=C/c1cn(-c2ccccc2)nc1-c1cccnc1)N1CCCC1`, which EC50 [8] is on record?
A: The EC50 was > 35.4 µM (not active).

Q: What about the EC50 [9] of the same molecule?
A: The EC50 was > 35.4 µM (not active).

Q: What about the EC50 (HEK293) of the same molecule?
A: Its EC50 is > 35.4 µM (not active).

Q: Which EC50 (Mucolipin-3) does the source give for `CN(C1CCCCC1)S(=O)(=O)c1cccc(C(=O)OCC(=O)NC2CCCc3ccccc32)c1` (centres undefined) here?
A: The EC50 was 2.86 µM (active).

Q: What about the EC50 (Ion channel NompC) of the same molecule?
A: Its EC50 is > 29.9 µM (not active).
